Reference: US6406708B1, “Therapeutic compositions” (Interhealth AB, priority 1998, dated 2002)

Details: 0.15% of sorbic acid in squalane/cyclodextrin composition

Compound: C/C=C/C=C/C(=O)O [sorbic acid]
- anti-acne effect: does not give any anti-acne effect
